Source: patent publication US9909219B2, “Slurry biocide” (ECOLAB USA INC., priority 2014, dated 2018)

How the values were obtained:
Total Aerobic Bacteria = assay: Biocide treatment of pipeline makeup water (river water): total aerobic bacteria count; type: cell-based
Text: (§1) Two water samples collected directly of makeup water of a pipeline sourced form river water, were submitted to biocide treatment. One sample was highly contaminated with microorganisms (1700 CFU/mL) while the other was less contaminated (120 CFU/mL). […] There is a dramatic reduction in required dosage using oxidizing biocide ([…]) (Tests 3, 4 and 7).

[1] = test system: Sulfate Reducing Bacteria; assay: Biocide treatment of pipeline makeup water (river water): sulfate reducing bacteria count; type: cell-based
Text: as §1

Row | Compound | Final Count Total Aerobic Bacteria (Total Aerobic Bacteria; Test 1, initial count 1700 CFU/mL, dosage 500 ppm) | Final Count Total Aerobic Bacteria (Total Aerobic Bacteria; Test 5, initial count 120 CFU/mL, dosage 500 ppm) | Final Count Sulfate Reducing Bacteria ([1]; Test 1, initial count 30 CFU/mL, dosage 500 ppm) | Final Count Sulfate Reducing Bacteria ([1]; Test 5, initial count <10 CFU/mL, dosage 500 ppm) | Final Count Total Aerobic Bacteria (Total Aerobic Bacteria; Test 3, initial count 1700 CFU/mL, dosage 5 ppm) | Final Count Total Aerobic Bacteria (Total Aerobic Bacteria; Test 4, initial count 120 CFU/mL, dosage 4 ppm) | Final Count Total Aerobic Bacteria (Total Aerobic Bacteria; Test 7, initial count 120 CFU/mL, dosage 1.5 ppm) | Final Count Sulfate Reducing Bacteria ([1]; Test 3, initial count 30 CFU/mL, dosage 5 ppm) | Final Count Sulfate Reducing Bacteria ([1]; Test 4, initial count <10 CFU/mL, dosage 4 ppm) | Final Count Sulfate Reducing Bacteria ([1]; Test 7, initial count <10 CFU/mL, dosage 1.5 ppm)
1 | O=CCCCC=O [A, Glutaraldehyde] | 330 CFU/mL | <27 CFU/mL | 10 CFU/mL | <10 CFU/mL | – | – | – | – | – | –
2 | [O][Cl+][O-] [ClO2, chlorine dioxide] | – | – | – | – | 30 CFU/mL | <27 CFU/mL | <27 CFU/mL | <10 CFU/mL | <10 CFU/mL | <10 CFU/mL
